≈ marks a conversion by molar mass, not a printed value.
What was measured:
[1] = British Patent 1,162,027 / Japanese application J6 2040292A; cited from earlier work
[2] = tested on: battery of fungal organisms; conditions: tested against a battery of fungal organisms; cited from earlier work
C. albicans 4711E = assay: protection of mice infected with C. albicans; assay type: in vivo, male mice infected with C. albicans 4711E; conditions: 50 mg/kg po
Source text: The in vivo evaluation of compounds of formula (I) can be carried out at a series of dose levels by administration (e.g. subcutaneously, orally, intraperitoneally or intravenously) to mice or rats inoculated with a strain of Candida albicans. Untreated animals die within 3 to 9 days and the dose level at which the test compound provides 50% protection against the lethal effect of the infection is noted.
(§1) The compounds of the invention are essentially non-toxic at therapeutically useful levels. […] The LD50 value for the compound of example 8, in male mice is >1000 mg/kg po.

[3] = acute oral toxicity (LD50); assay type: in vivo; conditions: male mice
Protocol: as §1

[4] = tested on: C. psuedotropicalis 2371E; assay: in vitro antifungal MIC, two-fold serial dilution; assay type: cell-based, Candida pseudotropicalis
Protocol: (§2) The in vitro evaluation of the anti-fungal activity of compounds of the invention was performed on liquid or solid medium by the anti-fungal two-fold serial dilution technique of determining the minimum inhibitory concentration (MIC) of anti-fungal agent that inhibited development of growth after 24 to 48 hours of incubation at 37° C. In practice, a series of agar plates or broth microdilution panels containing two-fold dilutions of anti-fungal agent tested were inoculated with a standard culture of a clinically relevant pathogen, for example, Candida albicans. The agar plates or broth microdulution panels were then examined for the presence or absence of growth of the fungus and the appropriate MIC values were noted.
(§3) Compounds of formula (I) have been tested for anti fungal activity in a standard in vitro screen and the minimum inhibiting concentration (MIC; μg/ml) determined for each compound against a variety of clinically relevant pathogens.

C. tropicalis 2808E = assay: in vitro antifungal MIC, two-fold serial dilution; assay type: cell-based, Candida tropicalis
Protocol: as §2, §3

C. albicans 4711 = assay: in vitro antifungal MIC, two-fold serial dilution; assay type: cell-based, Candida albicans
Protocol: as §2, §3

C. albicans 1208E = assay: in vitro antifungal MIC, two-fold serial dilution; assay type: cell-based, Candida albicans
Protocol: as §2, §3

C. albicans 2005E = assay: in vitro antifungal MIC, two-fold serial dilution; assay type: cell-based, Candida albicans
Protocol: as §2, §3

C. aibicans 2402E = assay: in vitro antifungal MIC, two-fold serial dilution; assay type: cell-based, Candida albicans
Protocol: as §2, §3

C. glabrata 2376E = assay: in vitro antifungal MIC, two-fold serial dilution; assay type: cell-based, Candida glabrata
Protocol: as §2, §3

C. glabrata 2375E = assay: in vitro antifungal MIC, two-fold serial dilution; assay type: cell-based, Candida glabrata
Protocol: as §2, §3

C. neoformans 2867E = assay: in vitro antifungal MIC, two-fold serial dilution; assay type: cell-based, Cryptococcus neoformans
Protocol: as §2, §3

Row | SMILES | MIC (minimum inhibiting concentration) [4] [µg/mL] | MIC (minimum inhibiting concentration) (C. tropicalis 2808E) [µg/mL] | MIC (minimum inhibiting concentration) (C. albicans 4711) [µg/mL] | MIC (minimum inhibiting concentration) (C. albicans 1208E) [µg/mL] | MIC (minimum inhibiting concentration) (C. albicans 2005E) [µg/mL] | MIC (minimum inhibiting concentration) (C. aibicans 2402E) [µg/mL] | MIC (minimum inhibiting concentration) (C. glabrata 2376E) [µg/mL] | MIC (minimum inhibiting concentration) (C. glabrata 2375E) [µg/mL] | MIC (minimum inhibiting concentration) (C. neoformans 2867E) [µg/mL] | reported activity [1] | antifungal activity [2] | spectrum of action [2] | activity in protecting male mice infected with C. albicans 4711E (C. albicans 4711E) | LD50 [3] [mg/kg]
1 | C/C=C/C=C\C(=O)O[C@H]1[C@H](O)[C@H](OCC23C[C@@H]4[C@H](C)CC[C@H]4C4(C=O)CC2C=C(C(C)C)C34C(=O)O)O[C@H](C)[C@H]1OC (some centres unmarked) [zofimarin] | – | – | – | – | – | – | – | – | – | antifungal activity | only moderately active | limited spectra of action | – | –
2 | CC(C)C1=CC2CC3(C=O)C4CCC(C)C4CC2(COC2CC4OC(C)(C)OC4C(C)O2)C13C(=O)[O-].[Na+] [Example 8, [1R-(1α,3aβ,4β,4aβ,7β,7aα,8aβ)]8a-[(2,6-Dideoxy-3,4-O-isopropylidene-β-D-allopyranosyloxy)methyl]-4-formyl-4,4a,5,6,7,7a,8,8a-octahydro-7-methyl-3-(1-methylethyl)-1,4-methano-s-indacene-3a(1H)-carboxylic acid, sodium salt] | – | – | – | – | – | – | – | – | – | – | – | – | active in protecting male mice | > 1000
3 | CO[C@H]1[C@@H](O)[C@H](O)[C@H](OC[C@@]23C[C@@H]4[C@H](C)CC[C@H]4[C@@]4(C=O)CC2C=C(C(C)C)[C@@]34C(=O)O)O[C@@H]1C [sordarin] | – | – | – | – | – | – | – | – | – | fungistatic activity | only moderately active | limited spectra of action | – | –
4 | C=CCOC1C(C)OC(OCC23CC4C(C)CCC4C4(C=O)CC2C=C(C(C)C)C43C(=O)O)C2OC12 [Example 68, [1R-(1α,3aβ,4β,4aβ,7β,7aβ,8aβ)]8a-[(4-O-Allyl,2,3-anhydro,6deoxy-β-D-mannopyranosyl)oxy-methyl]-4-formyl-4,4a5,6,7,7a8,8a-octahydro-7-methyl-3-(1-methylethyl)-1,4-methano-s-indacene-3a(1H)-carboxylic acid] | 0.015 (≈ 0.03 µM) | 0.250 (≈ 0.499 µM) | 0.030 (≈ 0.0599 µM) | 0.060 (≈ 0.12 µM) | 0.060 (≈ 0.12 µM) | 0.002 (≈ 0.00399 µM) | 31.00 (≈ 61.9 µM) | 31.00 (≈ 61.9 µM) | 1.00 (≈ 2 µM) | – | – | – | – | –

The next lines start with results.

Row | MIC (minimum inhibiting concentration) [4] [µg/mL] | MIC (minimum inhibiting concentration) (C. tropicalis 2808E) [µg/mL] | MIC (minimum inhibiting concentration) (C. albicans 4711) [µg/mL] | MIC (minimum inhibiting concentration) (C. albicans 1208E) [µg/mL] | MIC (minimum inhibiting concentration) (C. albicans 2005E) [µg/mL] | MIC (minimum inhibiting concentration) (C. aibicans 2402E) [µg/mL] | MIC (minimum inhibiting concentration) (C. glabrata 2376E) [µg/mL] | MIC (minimum inhibiting concentration) (C. glabrata 2375E) [µg/mL] | MIC (minimum inhibiting concentration) (C. neoformans 2867E) [µg/mL] | SMILES | reported activity [1] | antifungal activity [2] | spectrum of action [2] | activity in protecting male mice infected with C. albicans 4711E (C. albicans 4711E) | LD50 [3] [mg/kg]
5 | 0.004 | 0.008 | ≤ 0.001 | ≤ 0.001 | ≤ 0.001 | ≤ 0.001 | 0.500 | 0.500 | 0.250 | CC(C)C1=CC2CC3(C=O)C4CCC(C)C4CC2(COC2CC4C(C)COC4C(C)O2)C13C(=O)[O-].[Na+] [Example 20, [1R-(1α,3aβ,4β,4aβ,7β,7aα,8aβ)]8a-[[1S,4R,7R,9R]-2,8-Dioxa-4,9-dimethyl-cis-bicyclo[3.4.0]-7-yl-oxy-methyl]-4-formyl-4,4a,5,6,7,7a,8,8a-octahydro-7-methyl-3-(1-methylethyl)-1,4-methano-s-indacene-3a(1H)-carboxylic acid, sodium salt] | – | – | – | – | –
6 | 0.060 (≈ 0.123 µM) | 0.500 (≈ 1.03 µM) | 0.030 (≈ 0.0617 µM) | 0.060 (≈ 0.123 µM) | 0.001 (≈ 0.00206 µM) | 0.060 (≈ 0.123 µM) | 6.00 (≈ 12.3 µM) | 4.00 (≈ 8.22 µM) | ≤ 0.250 | CC(C)C1=CC2CC3(C=O)C4CCC(C)C4CC2(COC2CC4C(=O)COC4C(C)O2)C13C(=O)O [Example 37, [1R-(1α,3aβ,4β,4aβ,7β,7aα,8aβ)]8a-[[1S,7R,9R]-2,8-Dioxa-9-methyl-4-oxo-cis-bicyclo[3.4.0]-non-7-yl-oxy-methyl]-4-formyl4,4a,5,6,7,7a,8,8a-octahydro-7-methyl-3-(1-methyl-ethyl)-1,4-methano-s-indacene-3a(1H)-carboxylic acid] | – | – | – | – | –

Reference: patent US5854280A, “Antifungal sordaridin derivatives” (Glaxo Wellcome S.A., priority 1994, dated 1998)
